From ChEMBL document CHEMBL3400029, “Xanthones from the roots of Maclura cochinchinensis var. gerontogea and their retinoic acid receptor-α agonistic activity” (Bioorg Med Chem Lett, 2015)
Activity calls are given as the source filed them. The calls are words filed in the database; no cut-off is given here.

Assays:
Type in all cases: cell-based
[1] = target: T1, Retinoic acid receptor alpha (Homo sapiens, UniProt P10276); assay: Agonist activity at RARalpha (unknown origin) expressed in HEK293 cells assessed as transcriptional activation after 48 hrs by luciferase reporter gene assay in presence of bexarotene
T1 sequence (P10276 whole entry): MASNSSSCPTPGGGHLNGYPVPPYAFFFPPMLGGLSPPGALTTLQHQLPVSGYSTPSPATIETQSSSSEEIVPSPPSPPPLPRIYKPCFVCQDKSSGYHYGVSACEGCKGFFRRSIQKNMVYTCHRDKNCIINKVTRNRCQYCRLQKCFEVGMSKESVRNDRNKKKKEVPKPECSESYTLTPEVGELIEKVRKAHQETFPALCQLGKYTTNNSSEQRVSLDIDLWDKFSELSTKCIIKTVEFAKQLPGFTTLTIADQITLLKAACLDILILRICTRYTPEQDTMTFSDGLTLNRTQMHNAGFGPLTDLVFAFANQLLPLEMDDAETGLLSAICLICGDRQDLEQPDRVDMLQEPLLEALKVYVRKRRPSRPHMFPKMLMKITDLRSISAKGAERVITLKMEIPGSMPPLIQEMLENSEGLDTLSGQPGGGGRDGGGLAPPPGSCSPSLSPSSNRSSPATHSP

[2] = target: T2, Retinoic acid receptor alpha (Homo sapiens) (UniProt P10276); assay: Agonist activity at RARalpha (unknown origin) expressed in HEK293 cells assessed as transcriptional activation at 1 uM after 48 hrs by luciferase reporter gene assay
T2 sequence (whole entry): T1 sequence (P10276 whole entry)

[3] = target: T1, Retinoic acid receptor alpha; assay: (§1) Agonist activity at RARalpha (unknown origin) expressed in HEK293 cells assessed as transcriptional activation after 48 hrs by luciferase reporter gene assay
[4] = target: T2, Retinoic acid receptor alpha (Homo sapiens); assay: as §1
HEK293 = assay: Cytotoxicity against HEK293 cells at > 1 uM; conditions: human

| Compound | EC50 [1] | Activity [2] | EC50 [3] | Activity [4] | Activity (HEK293) |
| --- | --- | --- | --- | --- | --- |
| CC1(C)C=Cc2c(cc(O)c3c(=O)c4c5c(ccc4oc23)OC(C(C)(C)O)C5)O1 (stereo not drawn) | 0.17 µM | Active | 0.065 µM | Dose-dependent effect | – |
| CC(C)=CCc1c(O)ccc2oc3c4c(cc(O)c3c(=O)c12)OC(C)(C)C=C4 | 0.2 µM | Active | 0.11 µM | Dose-dependent effect | – |
| CC1Oc2cc3oc4c(O)c5c(cc4c(=O)c3c(O)c2C1(C)C)C=CC(C)(C)O5 (stereo not drawn) [GERONTOXANTHONE A] | 0.2 µM | Active | 0.17 µM | Dose-dependent effect | – |
| C=CC(C)(C)c1c(O)cc2oc3c(O)c4c(cc3c(=O)c2c1O)C=CC(C)(C)O4 [GERONTOXANTHONE B] | 2 µM | Active | 1.7 µM | Dose-dependent effect | – |
| CC(C)=CCc1c(O)cc(O)c2c(=O)c3c(CC=C(C)C)c(O)ccc3oc12 [GERONTOXANTHONE H] | – | Active | – | – | Toxic |
